The values that follow come from article PMC9228656 (Toxins, 2022).

Data set [1] relates to Salmonella tester strains. To be noted: cited from earlier work.
The subject of data set [2] is Escherichia coli PQ37. Conditions: cited from earlier work.
Data set [3] deals with Salmonella typhimurium 1535/pSK1002.
Data set [4] shares this test system. This is another data set of the same source.
Data set [5] has the same test system. This is another data set of the same source.
Data set [6] relates to 1535, 1538 and 98 strains. Conditions: cited from earlier work.
Data set [7] concerns Escherichia coli. Conditions: cited from earlier work.

Like-named read-outs stand apart in the source and are kept apart here.

Turning to `CC1=C[C@H]2O[C@@H]3[C@H](O)C[C@](C)([C@@]2(CO)[C@H](O)C1=O)[C@]31CO1` [DON, deoxynivalenol], the “mutagenic activity in the Ames test” value in data set [1] is recorded as “mutagenic activity was not found”. In addition, the “genotoxicity in the SOS chromotest” value in data set [2] is “negative”. The “genotoxicity result in the SOS/umu test” value is “negative (key: IF values above or equal to two were considered as positive when the bacterial survival is above 80%; IF values below 1.5 were considered negative; IF among 2 and 1.5 were considered equivocal)” in data set [3]; “negative (key: IF values above or equal to two were considered as positive when the bacterial survival is above 80%; IF values below 1.5 were considered negative; IF among 2 and 1.5 were considered equivocal)” in data set [4]; “negative (key: IF values above or equal to two were considered as positive when the bacterial survival is above 80%; IF values below 1.5 were considered negative; IF among 2 and 1.5 were considered equivocal)” in data set [5]. The “highest IF value obtained” value in data set [5] (Salmonella typhimurium) is 1.94.
As for `CC(=O)O[C@@H]1[C@@H](O)[C@H]2O[C@@H]3C=C(C)C(=O)[C@@H](O)[C@]3(CO)[C@]1(C)[C@]21CO1` [F-X, fusarenon-X], the “mutagenic activity in the Ames test” value in data set [1] was “mutagenic activity was not found”. Also, the “genotoxicity result in the SOS/umu test” value in data set [3] was “negative (key: IF values above or equal to two were considered as positive when the bacterial survival is above 80%; IF values below 1.5 were considered negative; IF among 2 and 1.5 were considered equivocal)”; in data set [4] it was “negative (key: IF values above or equal to two were considered as positive when the bacterial survival is above 80%; IF values below 1.5 were considered negative; IF among 2 and 1.5 were considered equivocal)”; in data set [5], “negative (key: IF values above or equal to two were considered as positive when the bacterial survival is above 80%; IF values below 1.5 were considered negative; IF among 2 and 1.5 were considered equivocal)”. For the same molecule, in data set [5], the “highest IF value obtained” value came out at 1.88.
For the molecule `CC(=O)OC[C@]12C[C@H](OC(=O)CC(C)C)C(C)=C[C@H]1O[C@@H]1[C@H](O)[C@@H](OC(C)=O)[C@@]2(C)[C@]12CO2` [T-2, T-2 toxin], the “mutagenic activity in the Ames test” value in data set [1] is reported as “mutagenic activity was not found”. In addition, the “experiments with IF values above two” value in data set [5] is reported as “three out of four experiments”.
Consider `C[C@@H]1Cc2c(Cl)cc(C(=O)N[C@@H](Cc3ccccc3)C(=O)O)c(O)c2C(=O)O1` [OTA, ochratoxin A], for which the “mutagenic response in the Ames test” value in data set [1] is “negative”. Further, in data set [1], the “mutagenicity with Salmonella tester strains” value is “consistently negative”. The “SOS repair activity in SOS chromotest” value in data set [2] is “induced SOS repair activity”. Also, the “response in SOS chromotest” value in data set [2] is given as “weak response”. In data set [6], the “mutagenicity in the Ames test” value was “mutagenic”. The “genotoxicity result in the SOS/umu test” value was “negative (key: IF values above or equal to two were considered as positive when the bacterial survival is above 80%; IF values below 1.5 were considered negative; IF among 2 and 1.5 were considered equivocal)” in data set [3]; “negative (key: IF values above or equal to two were considered as positive when the bacterial survival is above 80%; IF values below 1.5 were considered negative; IF among 2 and 1.5 were considered equivocal)” in data set [4]; “negative (key: IF values above or equal to two were considered as positive when the bacterial survival is above 80%; IF values below 1.5 were considered negative; IF among 2 and 1.5 were considered equivocal)” in data set [5].
As to `CC(=O)OC[C@]12C[C@H](OC(=O)CC(C)C)C(C)=C[C@H]1O[C@@H]1[C@H](O)[C@@H](O)[C@@]2(C)[C@]12CO2` [HT-2, HT-2 toxin], in data set [5], the “experiments with IF values above two” value is “two out of four experiments”.
What is called IC50 is the point on the concentration scale where inhibition reaches its midpoint. On to `C[C@H]1CCCC(=O)CCC/C=C/c2cc(O)cc(O)c2C(=O)O1` [ZEA, zearalenone], for which, in data set [1], the “result in the Ames test” value is reported as “negative”. Moreover, in data set [7], the “genotoxic concentration (induction of SOS repair)” value was 1.5 mM. Further, in data set [7] (read-out: IC50 (toxicity)), the IC50 is 1450 µM. In addition, the “genotoxicity result in the SOS/umu test” value in data set [3] was “negative (key: IF values above or equal to two were considered as positive when the bacterial survival is above 80%; IF values below 1.5 were considered negative; IF among 2 and 1.5 were considered equivocal)”; in data set [4] it was “negative (key: IF values above or equal to two were considered as positive when the bacterial survival is above 80%; IF values below 1.5 were considered negative; IF among 2 and 1.5 were considered equivocal)”; in data set [5] it was “negative (key: IF values above or equal to two were considered as positive when the bacterial survival is above 80%; IF values below 1.5 were considered negative; IF among 2 and 1.5 were considered equivocal)”.
Regarding `Nc1ccc2cc3ccccc3cc2c1` [2AA, 2-aminoanthracene, reference compound], in data set [3], the “experiments in which the compound was genotoxic” value is listed as “eight out of eight experiments”. Also, in data set [3] (Salmonella typhimurium), the “induction factor (IF) reached” value was “around 4”.
For the molecule `CCCC[C@@H](C)[C@@H](OC(=O)C[C@@H](CC(=O)O)C(=O)O)[C@H](C[C@@H](C)C[C@H](O)CCCC[C@@H](O)C[C@H](O)[C@H](C)N)OC(=O)C[C@@H](CC(=O)O)C(=O)O` [FB1, fumonisin B1], the “mutagenic potential in the Ames test” value in data set [1] is on record as “negative”. Further, the “genotoxicity in the SOS chromotest” value in data set [2] is listed as “negative”. The “genotoxicity result in the SOS/umu test” value in data set [3] was “negative (key: IF values above or equal to two were considered as positive when the bacterial survival is above 80%; IF values below 1.5 were considered negative; IF among 2 and 1.5 were considered equivocal)”; in data set [4], “negative (key: IF values above or equal to two were considered as positive when the bacterial survival is above 80%; IF values below 1.5 were considered negative; IF among 2 and 1.5 were considered equivocal)”; in data set [5], “negative (key: IF values above or equal to two were considered as positive when the bacterial survival is above 80%; IF values below 1.5 were considered negative; IF among 2 and 1.5 were considered equivocal)”. The same molecule yielded an IF value reached in data set [5] of 1.99.
Regarding `CC(=O)OC[C@]12[C@H](O)C(=O)C(C)=C[C@H]1O[C@@H]1[C@H](O)C[C@@]2(C)[C@]12CO2` [15ADON, 15-acetyldeoxynivalenol], in data set [5], the “experiments with IF values above two” value was “two out of four experiments”.
Take `CC(=O)O[C@@H]1C[C@]2(C)[C@@]3(CO)[C@H](O)C(=O)C(C)=C[C@H]3O[C@H]1[C@@]21CO1` [3ADON, 3-acetyldeoxynivalenol]: in data set [1], the “mutagenic activity in the Ames test” value was “mutagenic activity was not found”. In addition, in data set [5], the “experiments with IF values above two” value is “three out of four experiments”.
`COc1cc2c(c3oc4cccc(O)c4c(=O)c13)[C@@H]1C=CO[C@@H]1O2` [STER, sterigmatocystin]: the “induction factor (IF)” value in data set [3] is reported as “greater than two”. The “experiments with IF values above two” value in data set [5] is listed as “one out of four experiments”.
In the case of aflatoxin B1 [AFB1], the “mutagenicity with metabolic activation relative to without bioactivation” value in data set [1] was 1000 times.
